From publication PMC6891286, “Towards the Development of an In vivo Chemical Probe for Cyclin G Associated Kinase (GAK)” (Molecules, 2019)

Assays:
Experiment in all cases: KINOMEscan
Assay type in all cases: binding
Conditions in all cases: 35 at 1 µM; read-out: % inhibition
[1] = target: T1, FYN (Homo sapiens, UniProt P06241)
T1 construct: purchased Eurofins DiscoverX (KINOMEscan)
Procedure: (§1) KinomeScan Assay on 35 was performed as previously described at EuroFins DiscoverX (Fremont, CA, USA).

[2] = target: T2, MST1R (Homo sapiens, UniProt Q04912)
T2 construct: purchased Eurofins DiscoverX (KINOMEscan)
Procedure: as §1

[3] = target: T3, p38-alpha (Homo sapiens, UniProt Q16539)
T3 construct: purchased Eurofins DiscoverX (KINOMEscan)
Procedure: as §1

[4] = target: T4, MARK4 (Homo sapiens, UniProt Q96L34)
T4 construct: purchased Eurofins DiscoverX (KINOMEscan)
Procedure: as §1

[5] = target: T5, CAMK2B (Homo sapiens, UniProt Q13554)
T5 construct: purchased Eurofins DiscoverX (KINOMEscan)
Procedure: as §1

[6] = target: T6, TXK (Homo sapiens, UniProt P42681)
T6 construct: purchased Eurofins DiscoverX (KINOMEscan)
Procedure: as §1

[7] = target: T7, CAMK1 (Homo sapiens, UniProt Q14012)
T7 construct: purchased Eurofins DiscoverX (KINOMEscan)
Procedure: as §1

[8] = target: T8, CDK5 (Homo sapiens, UniProt Q00535)
T8 construct: purchased Eurofins DiscoverX (KINOMEscan)
Procedure: as §1

[9] = target: T9, PFTK1 (Homo sapiens, UniProt O94921)
T9 construct: purchased Eurofins DiscoverX (KINOMEscan)
Procedure: as §1

[10] = target: T10, MST2 (Homo sapiens, UniProt Q13188)
T10 construct: purchased Eurofins DiscoverX (KINOMEscan)
Procedure: as §1

[11] = target: T11, VRK2 (Homo sapiens, UniProt Q86Y07)
T11 construct: purchased Eurofins DiscoverX (KINOMEscan)
Procedure: as §1

[12] = target: T12, JAK3(JH1domain-catalytic) (Homo sapiens, UniProt P52333)
T12 construct: JAK3(JH1domain-catalytic); purchased Eurofins DiscoverX (KINOMEscan)
Procedure: as §1

[13] = target: T13, MLK1 (Homo sapiens, UniProt P80192)
T13 construct: purchased Eurofins DiscoverX (KINOMEscan)
Procedure: as §1

[14] = target: T14, CDK11 (Homo sapiens, UniProt Q9BWU1)
T14 construct: purchased Eurofins DiscoverX (KINOMEscan)
Procedure: as §1

[15] = target: T15, EGFR(L861Q) (Homo sapiens, UniProt P00533, L861Q)
T15 construct: purchased Eurofins DiscoverX (KINOMEscan)
Procedure: as §1

[16] = target: T16, RIPK5 (Homo sapiens, UniProt Q6XUX3)
T16 construct: purchased Eurofins DiscoverX (KINOMEscan)
Procedure: as §1

[17] = target: T17, TSSK3 (Homo sapiens, UniProt Q96PN8)
T17 construct: purchased Eurofins DiscoverX (KINOMEscan)
Procedure: as §1

[18] = target: T18, MAP4K3 (Homo sapiens, UniProt Q8IVH8)
T18 construct: purchased Eurofins DiscoverX (KINOMEscan)
Procedure: as §1

[19] = target: T19, EPHA8 (Homo sapiens, UniProt P29322)
T19 construct: purchased Eurofins DiscoverX (KINOMEscan)
Procedure: as §1

[20] = target: T20, PKNB(M.tuberculosis) (Mycobacterium tuberculosis, UniProt P9WI81)
T20 construct: purchased Eurofins DiscoverX (KINOMEscan)
Procedure: as §1

[21] = target: T21, TRKA (Homo sapiens, UniProt P04629)
T21 construct: purchased Eurofins DiscoverX (KINOMEscan)
Procedure: as §1

[22] = target: T22, NDR1 (Homo sapiens, UniProt Q15208)
T22 construct: purchased Eurofins DiscoverX (KINOMEscan)
Procedure: as §1

[23] = target: T23, MAK (Homo sapiens, UniProt P20794)
T23 construct: purchased Eurofins DiscoverX (KINOMEscan)
Procedure: as §1

[24] = target: T24, RSK3(Kin.Dom.2-C-terminal) (Homo sapiens, UniProt Q15349)
T24 construct: RSK3(Kin.Dom.2-C-terminal); purchased Eurofins DiscoverX (KINOMEscan)
Procedure: as §1

[25] = target: T25, ROCK1 (Homo sapiens, UniProt Q13464)
T25 construct: purchased Eurofins DiscoverX (KINOMEscan)
Procedure: as §1

[26] = target: T26, ERK1 (Homo sapiens, UniProt P27361)
T26 construct: purchased Eurofins DiscoverX (KINOMEscan)
Procedure: as §1

[27] = target: T27, PLK3 (Homo sapiens, UniProt Q9H4B4)
T27 construct: purchased Eurofins DiscoverX (KINOMEscan)
Procedure: as §1

[28] = target: AAK1 (Homo sapiens, UniProt Q2M2I8); design: purchased Eurofins DiscoverX (KINOMEscan)
Procedure: as §1

T19 sequence (P29322 28-1005): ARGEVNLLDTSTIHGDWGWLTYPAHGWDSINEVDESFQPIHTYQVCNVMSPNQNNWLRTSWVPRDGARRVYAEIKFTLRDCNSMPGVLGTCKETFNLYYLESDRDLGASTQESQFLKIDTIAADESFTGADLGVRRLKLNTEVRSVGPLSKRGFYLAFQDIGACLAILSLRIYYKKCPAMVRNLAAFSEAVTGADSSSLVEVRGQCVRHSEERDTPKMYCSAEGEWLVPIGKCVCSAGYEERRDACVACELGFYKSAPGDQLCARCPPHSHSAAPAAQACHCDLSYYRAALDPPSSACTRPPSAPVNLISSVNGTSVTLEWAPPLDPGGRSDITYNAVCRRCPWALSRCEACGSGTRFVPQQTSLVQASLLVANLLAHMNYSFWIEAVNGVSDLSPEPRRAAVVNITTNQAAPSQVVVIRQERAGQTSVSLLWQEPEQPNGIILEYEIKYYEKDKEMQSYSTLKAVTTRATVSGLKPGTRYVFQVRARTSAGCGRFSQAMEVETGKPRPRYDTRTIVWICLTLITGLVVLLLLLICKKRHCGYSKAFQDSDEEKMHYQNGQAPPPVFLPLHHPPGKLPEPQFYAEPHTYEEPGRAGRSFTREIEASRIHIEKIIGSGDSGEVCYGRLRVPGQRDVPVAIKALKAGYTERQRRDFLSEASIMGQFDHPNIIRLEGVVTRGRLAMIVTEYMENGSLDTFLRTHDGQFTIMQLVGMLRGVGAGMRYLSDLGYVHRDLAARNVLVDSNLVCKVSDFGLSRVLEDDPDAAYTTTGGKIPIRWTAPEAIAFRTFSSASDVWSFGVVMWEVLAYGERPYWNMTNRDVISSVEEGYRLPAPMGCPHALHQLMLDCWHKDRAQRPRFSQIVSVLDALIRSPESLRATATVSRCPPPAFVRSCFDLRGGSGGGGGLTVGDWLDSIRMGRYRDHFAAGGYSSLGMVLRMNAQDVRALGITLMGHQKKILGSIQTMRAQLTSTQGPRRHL
T22 sequence (Q15208 whole entry): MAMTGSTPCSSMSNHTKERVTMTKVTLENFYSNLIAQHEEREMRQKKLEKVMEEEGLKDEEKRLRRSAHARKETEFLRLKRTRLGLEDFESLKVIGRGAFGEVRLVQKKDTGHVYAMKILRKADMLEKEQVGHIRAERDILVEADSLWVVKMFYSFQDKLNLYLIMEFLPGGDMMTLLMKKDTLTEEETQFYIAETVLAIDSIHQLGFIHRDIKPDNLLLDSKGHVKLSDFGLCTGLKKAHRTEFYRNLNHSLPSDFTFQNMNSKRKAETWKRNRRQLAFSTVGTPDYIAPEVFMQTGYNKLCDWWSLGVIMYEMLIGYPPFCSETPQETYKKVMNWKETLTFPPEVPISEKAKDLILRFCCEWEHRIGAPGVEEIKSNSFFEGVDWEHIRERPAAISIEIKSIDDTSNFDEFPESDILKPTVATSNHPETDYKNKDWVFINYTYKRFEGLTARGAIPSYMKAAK
T4 sequence (Q96L34 whole entry): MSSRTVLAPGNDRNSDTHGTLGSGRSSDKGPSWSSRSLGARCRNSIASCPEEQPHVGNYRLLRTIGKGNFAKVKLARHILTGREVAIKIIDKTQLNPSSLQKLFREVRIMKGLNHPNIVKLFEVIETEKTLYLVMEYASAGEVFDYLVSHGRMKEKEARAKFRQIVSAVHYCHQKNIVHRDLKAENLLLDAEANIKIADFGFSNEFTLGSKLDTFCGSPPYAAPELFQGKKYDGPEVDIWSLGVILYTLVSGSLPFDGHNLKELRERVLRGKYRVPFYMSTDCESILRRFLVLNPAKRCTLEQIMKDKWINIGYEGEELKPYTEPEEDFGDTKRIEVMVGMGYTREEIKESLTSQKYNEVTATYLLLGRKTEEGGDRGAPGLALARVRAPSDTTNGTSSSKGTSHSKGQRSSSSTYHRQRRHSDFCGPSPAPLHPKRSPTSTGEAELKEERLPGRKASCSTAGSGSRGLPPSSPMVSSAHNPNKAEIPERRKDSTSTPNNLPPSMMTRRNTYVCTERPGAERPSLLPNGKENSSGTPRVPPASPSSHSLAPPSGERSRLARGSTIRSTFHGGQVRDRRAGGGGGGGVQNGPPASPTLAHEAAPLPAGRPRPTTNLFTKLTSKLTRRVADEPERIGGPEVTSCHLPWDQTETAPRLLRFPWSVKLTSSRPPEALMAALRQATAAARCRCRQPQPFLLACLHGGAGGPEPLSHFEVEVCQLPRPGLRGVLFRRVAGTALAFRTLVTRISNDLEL
T26 sequence (P27361 whole entry): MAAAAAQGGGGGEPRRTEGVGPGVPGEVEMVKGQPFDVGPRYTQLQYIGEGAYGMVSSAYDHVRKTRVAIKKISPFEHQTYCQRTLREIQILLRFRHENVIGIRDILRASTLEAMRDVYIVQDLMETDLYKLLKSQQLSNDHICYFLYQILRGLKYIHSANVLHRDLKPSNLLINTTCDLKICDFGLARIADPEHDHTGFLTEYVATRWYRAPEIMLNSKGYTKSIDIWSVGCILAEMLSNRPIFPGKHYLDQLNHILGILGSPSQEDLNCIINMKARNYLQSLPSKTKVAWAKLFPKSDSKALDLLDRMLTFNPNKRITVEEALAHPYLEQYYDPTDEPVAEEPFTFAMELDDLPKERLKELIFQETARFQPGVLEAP
T20 sequence (P9WI81 whole entry, looked up): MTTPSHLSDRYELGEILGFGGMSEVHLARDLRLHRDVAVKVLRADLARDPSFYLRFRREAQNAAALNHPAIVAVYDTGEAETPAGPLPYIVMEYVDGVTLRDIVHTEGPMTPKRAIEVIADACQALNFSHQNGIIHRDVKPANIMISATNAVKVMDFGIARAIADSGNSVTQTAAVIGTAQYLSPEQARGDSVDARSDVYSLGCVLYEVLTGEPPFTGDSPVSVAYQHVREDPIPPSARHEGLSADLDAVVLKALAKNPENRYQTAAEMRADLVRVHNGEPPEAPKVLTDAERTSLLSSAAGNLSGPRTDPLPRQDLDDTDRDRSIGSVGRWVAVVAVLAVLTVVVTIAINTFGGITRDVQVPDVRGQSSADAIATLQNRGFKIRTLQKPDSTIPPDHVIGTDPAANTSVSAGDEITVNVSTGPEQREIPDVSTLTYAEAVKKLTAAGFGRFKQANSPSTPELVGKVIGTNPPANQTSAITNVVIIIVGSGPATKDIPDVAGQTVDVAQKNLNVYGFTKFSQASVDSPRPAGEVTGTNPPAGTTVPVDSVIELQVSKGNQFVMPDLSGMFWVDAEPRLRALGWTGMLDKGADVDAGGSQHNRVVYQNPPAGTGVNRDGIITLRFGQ
T7 sequence (Q14012 whole entry): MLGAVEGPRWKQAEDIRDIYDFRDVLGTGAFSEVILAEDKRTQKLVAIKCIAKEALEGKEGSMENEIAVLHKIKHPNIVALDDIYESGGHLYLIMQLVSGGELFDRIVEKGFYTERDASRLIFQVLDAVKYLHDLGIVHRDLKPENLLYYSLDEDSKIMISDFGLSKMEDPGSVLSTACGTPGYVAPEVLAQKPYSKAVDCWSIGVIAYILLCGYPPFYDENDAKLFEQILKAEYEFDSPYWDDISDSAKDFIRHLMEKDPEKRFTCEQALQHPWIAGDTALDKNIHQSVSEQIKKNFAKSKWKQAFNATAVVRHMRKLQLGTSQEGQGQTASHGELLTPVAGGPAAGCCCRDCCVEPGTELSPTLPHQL
T21 sequence (P04629 33-796): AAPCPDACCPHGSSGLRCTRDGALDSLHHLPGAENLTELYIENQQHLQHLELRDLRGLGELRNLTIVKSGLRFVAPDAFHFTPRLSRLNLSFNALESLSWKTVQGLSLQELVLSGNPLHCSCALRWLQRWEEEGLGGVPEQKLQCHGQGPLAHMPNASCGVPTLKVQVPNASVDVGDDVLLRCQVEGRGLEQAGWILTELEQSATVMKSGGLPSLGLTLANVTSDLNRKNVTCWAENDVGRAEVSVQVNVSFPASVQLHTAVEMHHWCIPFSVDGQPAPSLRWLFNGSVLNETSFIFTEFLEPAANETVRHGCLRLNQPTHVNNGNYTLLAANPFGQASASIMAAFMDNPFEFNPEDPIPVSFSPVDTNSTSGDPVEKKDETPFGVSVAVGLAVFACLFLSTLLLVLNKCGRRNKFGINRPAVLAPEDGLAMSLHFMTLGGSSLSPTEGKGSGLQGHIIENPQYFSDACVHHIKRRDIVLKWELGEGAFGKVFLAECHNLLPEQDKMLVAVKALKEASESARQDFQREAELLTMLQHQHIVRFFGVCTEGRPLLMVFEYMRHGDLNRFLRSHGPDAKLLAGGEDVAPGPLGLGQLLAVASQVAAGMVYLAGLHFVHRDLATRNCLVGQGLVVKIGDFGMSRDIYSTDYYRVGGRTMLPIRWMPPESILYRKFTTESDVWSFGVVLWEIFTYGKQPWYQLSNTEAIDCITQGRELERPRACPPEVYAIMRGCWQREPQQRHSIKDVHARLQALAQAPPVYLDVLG
T9 sequence (O94921 whole entry): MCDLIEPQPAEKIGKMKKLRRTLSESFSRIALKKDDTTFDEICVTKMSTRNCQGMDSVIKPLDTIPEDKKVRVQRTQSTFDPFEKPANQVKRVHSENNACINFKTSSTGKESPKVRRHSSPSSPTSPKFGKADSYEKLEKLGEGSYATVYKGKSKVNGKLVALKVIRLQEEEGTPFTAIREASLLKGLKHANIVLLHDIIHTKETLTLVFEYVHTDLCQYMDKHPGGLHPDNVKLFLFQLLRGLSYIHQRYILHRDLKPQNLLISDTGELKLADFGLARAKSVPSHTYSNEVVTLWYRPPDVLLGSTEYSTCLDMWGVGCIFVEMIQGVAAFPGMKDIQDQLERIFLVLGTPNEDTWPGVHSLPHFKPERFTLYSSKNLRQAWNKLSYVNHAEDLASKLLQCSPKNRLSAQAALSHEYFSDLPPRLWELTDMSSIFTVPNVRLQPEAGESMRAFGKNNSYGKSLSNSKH

Structure (SMILES): Brc1ccc2nccc(Nc3ccc4cn[nH]c4c3)c2c1 [Compound 35, 6-Bromo-N-(1H-indazol-6-yl)quinolin-4-amine]
- activity at 1 µM [1]: 100%
- activity at 1 µM [2]: 100%
- activity at 1 µM [3]: 100%
- activity at 1 µM [4]: 100%
- activity at 1 µM [5]: 100%
- activity at 1 µM [6]: 100%
- activity at 1 µM [7]: 100%
- activity at 1 µM [8]: 100%
- activity at 1 µM [9]: 69%
- activity at 1 µM [10]: 100%
- activity at 1 µM [11]: 100%
- activity at 1 µM [12]: 83%
- activity at 1 µM [13]: 100%
- activity at 1 µM [14]: 80%
- activity at 1 µM [15]: 100%
- activity at 1 µM [16]: 100%
- activity at 1 µM [17]: 77%
- activity at 1 µM [18]: 100%
- activity at 1 µM [19]: 100%
- activity at 1 µM [20]: 77%
- activity at 1 µM [21]: 100%
- activity at 1 µM [22]: 69%
- activity at 1 µM [23]: 100%
- activity at 1 µM [24]: 100%
- activity at 1 µM [25]: 71%
- activity at 1 µM [26]: 100%
- activity at 1 µM [27]: 100%
- activity at 1 µM [28]: 100%
